The values below come from patent US10166237B2, “Compounds and methods for inducing chondrogenesis” (The Scripps Research Institute, priority 2011, dated 2019).

The test system of the test is human mesenchymal stem cells (hMSCs). As to the kind of experiment: chondrogenic nodule formation by hMSCs (high throughput screen). Type of test: cell-based. Here is the method:
The primary screening assay was based upon the development of chondrogenic nodules. Chondrocytes can grow in monolayer in vitro, but to more closely mimic their native environment in the joint, the cells are routinely cultured in non-adherent conditions such as in pellet cultures or alginate bead suspensions.
In the actual screen of a library of 22,000 structurally diverse heterocycles, 10^4 primary hMSCs were plated in 384 well plates in serum free DMEM. The cells were treated with 5 μM of each compound and incubated for 4 days. […] To facilitate high throughput imaged-based detection, the chondrogenic nodules were stained with […]. The Nile Red stained nodules were quantified on an Acumen eX3 (high content imaging device) by excitation with a 488 laser for rapid detection of the nodules.
Primary hMSCs grown in a 96 well Greiner plates (50,000/well) were incubated for 4 days in the presence of the 5 uM of each DMSO or 100 nM of PRO1. On day 4, the cells were fixed with 4% formalin for 10 minutes, washed and stained with 1 μg/ml of Rhodamine B for 2 hours at room temperature.
Regarding `O=C(O)c1cccc(CNC(=O)c2ccccc2C(=O)O)c1` [MS02], the “Activity (chondrogenic nodules formed in % of cells)” value is on record as “** (chondrogenic nodules formed in at least 25% but less than 50% of cells)”.

In the case of `N#Cc1ccccc1CNC(=O)c1ccccc1C(=O)O` [MS04], the “Activity (chondrogenic nodules formed in % of cells)” value is “** (chondrogenic nodules formed in at least 25% but less than 50% of cells)”.

Consider `N#Cc1ccc(CNC(=O)c2ccccc2C(=O)O)cc1` [MS06], for which the “Activity (chondrogenic nodules formed in % of cells)” value is given as “** (chondrogenic nodules formed in at least 25% but less than 50% of cells)”.

Turning to `N#Cc1ccc(C(=O)NCc2ccccc2C(=O)O)cc1` [MS11], the “Activity (chondrogenic nodules formed in % of cells)” value was “** (chondrogenic nodules formed in at least 25% but less than 50% of cells)”.

As for `O=C(Cc1ccc(C(=O)O)cc1)Nc1ccccc1C(=O)O` [MS14], the “Activity (chondrogenic nodules formed in % of cells)” value is reported as “** (chondrogenic nodules formed in at least 25% but less than 50% of cells)”.

For `N#Cc1ccc(/C=C/C(=O)c2ccccc2C(=O)O)cc1` [MS15, 2-[(2E)-3-(4-cyanophenyl)prop-2-enoyl]benzoic acid], the “Activity (chondrogenic nodules formed in % of cells)” value is “*** (chondrogenic nodules formed in at least 50% but less than 75% of cells)”.

As for `O=C(O)c1ccc(/C=C/C(=O)c2ccccc2C(=O)O)cc1` [MS16], the “Activity (chondrogenic nodules formed in % of cells)” value is listed as “** (chondrogenic nodules formed in at least 25% but less than 50% of cells)”.

In the case of `N#Cc1ccc(C(=O)CC2OC(=O)c3ccccc32)cc1` (stereo not drawn) [MS17-1], the “Activity (chondrogenic nodules formed in % of cells)” value is given as “*** (chondrogenic nodules formed in at least 50% but less than 75% of cells)”.

Take `O=C(O)c1ccc(C(=O)CC2OC(=O)c3ccccc32)cc1` (stereo not drawn) [MS18-1]: the “Activity (chondrogenic nodules formed in % of cells)” value is listed as “** (chondrogenic nodules formed in at least 25% but less than 50% of cells)”.

With `N#Cc1ccc(-c2c[nH]c3c(C(=O)O)cccc23)cc1` [MS21], the “Activity (chondrogenic nodules formed in % of cells)” value is “*** (chondrogenic nodules formed in at least 50% but less than 75% of cells)”.

Turning to `N#Cc1ccc(N2Cc3ccccc3C2=O)cc1` [MS26], the “Activity (chondrogenic nodules formed in % of cells)” value is recorded as “** (chondrogenic nodules formed in at least 25% but less than 50% of cells)”.

Take `N#Cc1ccc(N2C(=O)c3ccccc3C2=O)cc1` [MS28]: the “Activity (chondrogenic nodules formed in % of cells)” value is listed as “** (chondrogenic nodules formed in at least 25% but less than 50% of cells)”.

For `O=C(O)c1ccc(N2C(=O)c3ccccc3C2=O)cc1` [MS29], the “Activity (chondrogenic nodules formed in % of cells)” value is recorded as “*** (chondrogenic nodules formed in at least 50% but less than 75% of cells)”.

Take `O=C(O)c1ccc2c(c1)C(=O)N(Cc1ccccc1C(=O)O)C2=O` [MS39]: the “Activity (chondrogenic nodules formed in % of cells)” value is reported as “*** (chondrogenic nodules formed in at least 50% but less than 75% of cells)”.

For the molecule `O=C(NO)c1ccc(NC(=O)c2ccccc2C(=O)O)cc1` [PA02], the “Activity (chondrogenic nodules formed in % of cells)” value is “** (chondrogenic nodules formed in at least 25% but less than 50% of cells)”.

As for `O=C(O)c1ccccc1C(=O)Nc1ccc(-c2nn[nH]n2)cc1` [PA06], the “Activity (chondrogenic nodules formed in % of cells)” value was “*** (chondrogenic nodules formed in at least 50% but less than 75% of cells)”.

As for `O=C(O)c1ccccc1C(=O)Nc1ccc(S(=O)(=O)O)cc1` [PA07], the “Activity (chondrogenic nodules formed in % of cells)” value is “*** (chondrogenic nodules formed in at least 50% but less than 75% of cells)”.

As to `O=C(O)c1ccccc1C(=O)Nc1ccc(P(=O)(O)O)cc1` [PA08], the “Activity (chondrogenic nodules formed in % of cells)” value is recorded as “** (chondrogenic nodules formed in at least 25% but less than 50% of cells)”.

Consider `O=C(O)c1ccccc1C(=O)Nc1ccc(COc2ccccc2)cc1` [PM02], for which the “Activity (chondrogenic nodules formed in % of cells)” value is given as “** (chondrogenic nodules formed in at least 25% but less than 50% of cells)”.

`O=C(O)c1ccccc1C(=O)Nc1ccc(-c2ccccn2)cc1` [PM05]: the “Activity (chondrogenic nodules formed in % of cells)” value is recorded as “** (chondrogenic nodules formed in at least 25% but less than 50% of cells)”.

With `NC(=O)NCc1ccc(NC(=O)c2ccccc2C(=O)O)cc1` [PM10], the “Activity (chondrogenic nodules formed in % of cells)” value is listed as “** (chondrogenic nodules formed in at least 25% but less than 50% of cells)”.
